Source: patent publication US20190134148A1, “COMBINATION THERAPY” (BIG DNA LTD, priority 2016, published 2019)
Like-named read-outs stand apart in the source and are kept apart here.

How the values were obtained:
[1] = molecular target: 20S proteasome (Homo sapiens, UniProt P20618+P28074); conditions: cited from earlier work
[2] = CD-1 mice; 4 mg/kg PO versus 0.8 mg/kg intravenously; cited from earlier work
[3] = system: CWR22 human prostate cancer xenografts; conditions: cited from earlier work
[4] = system: T47D breast cancer cell line; experiment: Sulforhodamine B viability assay and isobologram / combination index in T47D cells; type: cell-based; conditions: for CI: single agent
Procedure: For assessment of combined BTZ and cilengitide toxicity, T47D cells were seeded at a density of 7500 cells/cm^2 in 96-well cell culture plates and incubated for 24 hours. Cilengitide was diluted to 20 μM in complete DMEM, then 3 serial tenfold dilutions of this were performed in complete DMEM (2 μM, 200 nM and 20 nM). Complete DMEM containing no cilengitide was provided for negative controls.
These dilutions (or DMSO for wells containing no BTZ) were added to aliquots of complete DMEM containing 0-20 μM cilengitide for a 1/150 dilution. Aliquots (0.1 mL) of each mixture were added to wells already containing 0.1 mL medium (in duplicate), resulting in a matrix of cilengitide (10 nM-10 μM) and/or BTZ (1 nM-10 μM) or neither agent (diluent only).
OD570nm readings were divided by those resulting from negative control (diluent only) wells and expressed as a percentage. Three independent replicates of this experiment were carried out.
The isoboles were obtained similarly by extrapolation of points representing 50% reduction in viability from line graphs of % viability versus concentration of one agent at variable concentration with the other agent supplied at a fixed concentration.
The position of the points on this graph (FIG. 6) indicates whether a combined effect is synergistic (falling below/left of the line) antagonistic (falling above/right of this line) or additive (on or close to this line).
CA,x and CB,x are the concentrations of drug A and drug B used in combination to achieve x % drug effect. ICx,A and ICx,B are the concentrations for single agents to achieve the same effect.

[5] = system: WSU-DLCL2 lymphoma xenograft; conditions: at MTD; cited from earlier work
[6] = system: NCI H-929 human multiple myeloma cells; experiment: NCI-H929 sub-cutaneous xenograft mouse tumor model, 'high' bortezomib dose (Example 7); type: in vivo, SCID mouse; conditions: for Complete response / No response / Partial response: mice of N = 10; for Complete response / No response / Partial response / Total RR %: bortezomib 1 mg/kg IV biweekly, cilengitide 45 mg/kg IP QD; for Total RR %: sum of PR+CR
Description: This was then continued until Day 21.
Partial response (PR) is defined as the first measurement of the tumor volume being 50% or less of its Day 1 volume for three consecutive measurements during the course of the study, and equal to or greater than 13.5 mm^3 for one or more of these three measurements. In a complete response (CR), the tumor volume was less than 13.5 mm^3 for three consecutive measurements during the course of the study. Total response rate (RR) is the sum of PR+CR. Treatment began on day 1 and was stopped on Day 21.

[7] = system: NCI H-929 multiple myeloma cell line; experiment: NCI H-929 sub cutaneous tumour study with varied BTZ dose, TGI and TTE (Example 8); type: in vivo, mice; conditions: day 18
Procedure: Cilengitide or vehicle was supplied as daily intra-peritoneal injection (45 mg/kg). […] After this point, dosing was continued in groups receiving 0.2 mg/kg and 0.5 mg/kg BTZ t cilengitide until day 31 to allow comparative tumour growth delay (i.e. difference in time to endpoint (TTE). […] TTE was calculated as TTE=[log(endpoint volume)-b]/m where TTE is expressed in days, endpoint volume is expressed in mm^3, b is the intercept, and m is the slope of the line obtained by linear regression of a log-transformed tumour growth data set. TTE values were plotted in Kaplan-Meier diagrams (FIGS. 9 and 10).

[8] = Sprague-Dawley rats; AUC intravenous versus intra-gastric administration; cited from earlier work
[9] = system: Cos7 cells; experiment: Sulforhodamine B relative cell growth assay in Cos7 cells; type: cell-based; conditions: COS-7 (αvβ3−ve); 10 μM proteasome inhibitor without cRGDfK
[10] = system: chymotrypsin-like activity of the proteasome; conditions: highest dose used in the phase I trial; cited from earlier work
[11] = phase II trials; heavily pretreated patient population; cited from earlier work
[12] = system: HEK293 cells; experiment: Sulforhodamine B relative cell growth assay in HEK293 cells; type: cell-based; conditions: HEK293 (αvβ3+ve); 10 μM proteasome inhibitor without cRGDfK
Procedure: Established methodology was used to prepare 80-100% confluent monolayers of HEK293 cells in T75 flasks. Cells were cultured in DMEM (Lonza) supplemented with 10% FBS (Gibco), 2 mM L-glutamine, 100 U/mL penicillin and 100 μg/mL streptomycin (“complete DMEM”).
The cells in T75 flasks were trypsinised and resuspended in complete DMEM. The cells were counted using a Neubauer chamber and seeded at approximate density of 3×10^4 cells/cm^2 and 7500 cells/cm^2 in 96 well flat bottomed tissue culture plates (Corning) 0.1 mL cell suspension per well. Cells were incubated for 24 hours at 37° C./5% CO2 (humidified). […]
Briefly: medium was removed from wells and replaced with an equal volume of PBS. […] Optical density (OD570nm) was determined using an ELISA plate reader (Dynex MRX, Dynex Technologies).
In total, 5 replicates of the experiment were carried out. Cells treated with peptide/BTZ mixtures or control mixtures were incubated for 24 hours at 37° C./5% CO2 (humidified) then analysed by sulforhodamine B assay.
The average of the background measurements (i.e. no cells, medium only) was subtracted from each reading. ‘Ti’ is OD570nm following 24 hours treatment with drugs. […]
Using these equations, control cell growth is assigned a relative cell growth value of 100% and all cell growth values are calculated relative to this figure. […]

[13] = Cilengitide oral bioavailability, plasma level by LC-MS after intra-gastric gavage; type: in vivo; conditions: mice, 100 mg/kg intra-gastric gavage
Procedure: 3 mice were dosed with cilengitide at 100 mg/kg by intra-gastric gavage. Bleeds (0.1 mL) were taken before dosing and 5 and 15 minutes post dosing. Terminal bleeds (orbital vein) were taken at 60 minutes post-dose. All bleeds were transferred into Li-heparin tubes and plasma prepared by centrifugation. Aliquots of plasma (pooled per timepoint) were processed for analysis by addition of 3 volumes of acetonitrile, centrifuged for 1 minute at 13,000 rpm, then the supernatant recovered.
Samples were analysed by LC-MS alongside standards containing known amounts of cilengitide (1 ng/mL-1000 ng/mL). Cilengitide was undetectable in pre-dose, 5 minute and 15 minute time points. At the 60 minute time point: cilengitide levels were estimated to be 94.2 ng/mL.

[14] = system: DP54-Luc model; conditions: in vivo; cited from earlier work
[15] = system: PHTX22L xenografts; conditions: MTD level treatment; cited from earlier work
[16] = molecular target: chymotrypsin-like sites (Homo sapiens, UniProt P28074); conditions: cited from earlier work
[17] = at maximum tolerated dose (MTD)
[18] = By Day 42, treatment stopped on Day 21, N = 10

Sequence of chymotrypsin-like sites (P28074 60-263): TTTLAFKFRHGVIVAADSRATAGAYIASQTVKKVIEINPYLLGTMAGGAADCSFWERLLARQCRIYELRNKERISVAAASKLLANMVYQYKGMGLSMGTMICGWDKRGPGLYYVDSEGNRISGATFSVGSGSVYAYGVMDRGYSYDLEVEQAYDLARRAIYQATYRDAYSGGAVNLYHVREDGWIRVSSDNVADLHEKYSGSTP

SMILES: CC(C)C[C@H](NC(=O)[C@H](Cc1ccccc1)NC(=O)c1cnccn1)B(O)O [Bortezomib]
- proteasome dissociation half-life [1]: approximately 110 minutes
- estimated oral bioavailability [2]: approximately 11%
- anti-tumoral activity [3, 17]: effective anti-tumoral activity
- CI [4]: 1.00
- anti-tumoral activity [5]: ineffective
- mice showing a complete response ([6]; By Day 8, bortezomib 1 mg/kg): 10%
- animals remained 'cured' (tumours did not regrow) ([6]; By Day 42, treatment stopped on Day 21): 60%
- animals that reached end point (tumour volume>2000 mm^3) [6, 18]: 1
- animals that relapsed [6, 18]: 3 animals
- Complete response ([6]; Day 1): 0
- No response ([6]; Day 1): 10
- Partial response ([6]; Day 1): 0
- Total RR % ([6]; Day 1, N = 10): 0%
- Complete response ([6]; Day 4): 0
- No response ([6]; Day 4): 7
- Partial response ([6]; Day 4): 3
- Total RR % ([6]; Day 4, N = 10): 30%
- Total RR % ([6]; Day 4, N = 10, listed as bortezomib): 30%
- Complete response ([6]; Day 8): 1
- No response ([6]; Day 8): 3
- Partial response ([6]; Day 8): 6
- Total RR % ([6]; Day 8, N = 10): 70%
- Complete response ([6]; Day 12): 4
- No response ([6]; Day 12): 2
- Partial response ([6]; Day 12): 4
- Complete response ([6]; Day 15): 4
- No response ([6]; Day 15): 2
- Partial response ([6]; Day 15): 4
- Complete response ([6]; Day 18): 4
- No response ([6]; Day 18): 1
- Partial response ([6]; Day 18): 5
- Total RR % ([6]; Day 18, N = 10): 90%
- Complete response ([6]; Day 21): 5
- No response ([6]; Day 21): 1
- Partial response ([6]; Day 21): 4
- Total RR % ([6]; Day 21, N = 10): 90%
- Total RR % ([6]; Day 21, N = 10, listed as bortezomib): 90%
- mice that failed to respond at all ([6]; last treatment day (Day 21), bortezomib 1 mg/kg): 10%
- Tumour growth inhibition (TGI) ([7]; 0.5 mg/kg BTZ and below, without cilengitide): virtually ineffective
- Tumour growth inhibition (TGI) ([7]; BTZ doses of 0.7 mg/kg and greater, biweekly intravenous): almost complete TGI
- calculated bioavailability [8]: 46%

SMILES: CC(C)C[C@H](NC(=O)[C@H](CCc1ccccc1)NC(=O)CN1CCOCC1)C(=O)N[C@@H](Cc1ccccc1)C(=O)N[C@@H](CC(C)C)C(=O)[C@@]1(C)CO1 [Carfilzomib]
- Growth relative to untreated control cells [9]: greater activity than ixazomib, delanzomib and oprozomib
- inhibition of the chymotrypsin-like activity of the proteasome in blood of patients [10]: 88%
- partial response rate [11]: 24%
- Growth relative to untreated control cells [12]: greater activity than ixazomib, delanzomib and oprozomib

SMILES: CC(C)[C@H]1C(=O)N[C@@H](CCCN=C(N)N)C(=O)NCC(=O)N[C@@H](CC(=O)O)C(=O)N[C@H](Cc2ccccc2)C(=O)N1C [Cilengitide]
- cilengitide levels in plasma ([13]; 5 minute time point): undetectable
- cilengitide levels in plasma ([13]; 15 minute time point): undetectable
- level at 1 h ([13]; mouse, plasma, po, 60 minute time point, read-out: cilengitide levels in plasma): 94.2 ng/mL
- IC50 ([4]; read-out: Cilengitide (M), concentration resulting in 50% reduction in viability as single agent (IC50), bortezomib 0): 6.2e-06 M
- CI [4]: 1.00
- Complete response ([6]; Day 1): 0
- No response ([6]; Day 1): 10
- Partial response ([6]; Day 1): 0
- Total RR % ([6]; Day 1, N = 10): 0%
- Complete response ([6]; Day 4): 0
- No response ([6]; Day 4): 10
- Partial response ([6]; Day 4): 0
- Total RR % ([6]; Day 4, N = 10): 0%
- Complete response ([6]; Day 8): 0
- No response ([6]; Day 8): 10
- Partial response ([6]; Day 8): 0
- Total RR % ([6]; Day 8, N = 10): 0%
- Complete response ([6]; Day 12): 0
- No response ([6]; Day 12): 10
- Partial response ([6]; Day 12): 0
- Total RR % ([6]; Day 12, N = 10): 0%
- Complete response ([6]; Day 15): 0
- No response ([6]; Day 15): 10
- Partial response ([6]; Day 15): 0
- Total RR % ([6]; Day 15, N = 10): 0%
- Complete response ([6]; Day 18): 0
- No response ([6]; Day 18): 10
- Partial response ([6]; Day 18): 0
- Total RR % ([6]; Day 18, N = 10): 0%
- Complete response ([6]; Day 21): 0
- No response ([6]; Day 21): 10
- Partial response ([6]; Day 21): 0
- Total RR % ([6]; Day 21, N = 10): 0%

SMILES: CC(C)C[C@H](NC(=O)CNC(=O)c1cc(Cl)ccc1Cl)B(O)O [Ixazomib, [(1R)-1-[[2-[(2,5-dichlorobenzoyl)amino]acetyl]amino]-3-methyl-butyl]boronic acid]
- proteasome dissociation half-life [1]: approximately 18 minutes
- release from proteasome, fold faster than bortezomib [1]: approximately 6 fold
- alleviation of osteolytic bone disease [14]: effective
- anti-tumoral activity ([3]; at half the MTD): more effective than bortezomib
- anti-tumoral activity [3, 17]: effective anti-tumoral activity
- anti-tumoral activity [5]: significant anti-tumoral activity
- anti-tumoral effect [15]: only ixazomib was found to exhibit an anti-tumoral effect

SMILES: C[C@@]12OC(=O)[C@]1([C@@H](O)[C@@H]1C=CCCC1)NC(=O)[C@@H]2CCCl [Marizomib]
- inhibition of the chymotrypsin-like sites [16]: up to 100%
